According to EP0146113A2, “Active agent and therapeutical composition for the treatment of deincephalon failures of nervous deseases and skin diseases” (Aderhold, Dieter, priority 1983, dated 1985):

Legend:
[1] = system: Patienten; assay: Subcutaneous injection of the chemically pure substances in a series of patients; type: in vivo; settings: subkutan
Description: Es wurden ferner die chemisch reinen Substanzen α -MSH und ß -MSH subkutan bei einer Reihe von Patienten gespritzt.

[2] = Therapeutic use of melanotropin peptides, overall results (no method given); type: in vivo; settings: general statement, treatment of diencephalon/hypophysis dysfunction, Multiple Sklerose
[3] = Comparative trials with peptides of six, four or two amino acids of the chain Met-Glu-His-Phe-Arg-Trp-Gly; type: in vivo
Description: Die Wirkung von etwa 0,3 mg <-MSH entsprach etwa der Wirkung von 0,1 mg dieses Tetrapeptides.

[4] = system: Patienten; assay: Long-term trial, subcutaneous application over 2 - 15 months in a series of patients (MS therapy); type: in vivo
Description: Das Tetrapeptid His-Phe-Arg-Trp wurde in einem Langzeitversuch über 2 - 15 Monate hinweg einer Reihe von Patienten subkutan appliziert. Dabei wurden folgende Ergebnisse erhalten: • Zwei Drittel der Patienten hatten ein subjektives - aber durchaus auch objektivierbares - Gefühl der Frische, höheren Lebensmut und größerer Leistungsfähigkeit.
Verschiedene Anhaltspunkte machten deutlich, daß es sich nicht um einen Cortisoneffekt handelte.
Wenn ein bis zwei Tage lang nicht oder mit Placebos behandelt wurde, trat bei allen Patienten eine objektive Verschlechterung in Richtung der bisherigen Beschwerden auf; auch subjektiv waren alle Patienten eindrucksvoll in der Lage, anhand der Wirkung Spritzen mit Substanz von Placebos zu unterscheiden. Die richtige Dosierung des erfindungsgemäßen Mittels ist kritisch. Uberdosierungen machten sich in Form von erhöhtem Blutdruck, Hitzegefühl, Kurzatmigkeit und bei kreislauflabilen Patienten in deren typischen Beschwerden bemerkbar. Die normale Tagesdosis des Tentrapeptides zur MS-Therapie wurde auf etwa […] festgesetzt, in Einzelfällen - solange es ohne die obengenannten Uberdosierungsphänomene vertragen wird - höher bzw. im Sinne einer Erhaltungsdosis oder bei kreislauflabilen Patienten auch niedriger.

[5] = Storage stability (loss of activity on storage); type: physicochemical
Description: (§1) Die Erfahrungen mit α-, β- und 4 -MSH bzw. dem erwähnten Tetrapeptid zeigen, daß diese Substanzen ausserordentlich empfindlich und labil sind. […] Bei der Verbindung des Tetrapeptides mit einer Depotsubstanz sollte eine Wirkungsdauer von 12-15 Stunden angestrebt werden.
(§2) Während die Halbwertzeit des reinen Tetrapeptides ca. 1 Woche beträgt, trat bei dem hergestellten Depotpräparat ein geringerer Wirkungsverlust als 10% pro Woche auf. Im Körper hält der Depoteffekt zwischen 6 - 12h an. Als Tagesdosis von dem Depotpräparat empfiehlt sich eine Menge von etwa 1 ml, was etwa 200 Mikrogramm entspricht.
Für das Depotpräparat ist keine gekühlte Lagerung mehr erforderlich.

[6] = Duration of effect in the body; type: in vivo; settings: without depot substance
Description: as §1, §2

[7] = system: menschlichen Auges; assay: Eye drops, effect on vision; type: in vivo, Patienten
Description: Diese Fähigkeit zeigte insbesondere das Tetrapeptid His-Phe-Arg-Trp.
Es wurden täglich ca. 2pg pro Auge des Tetrapeptides in physiologischer Kochsalzlösung in der Form von Augentropfen verabreicht. Dabei wurden die vorstehend erwähnten Erfolge erzielt.

[8] = Augentropfen in physiologischer Kochsalzlösung, daily

Molecule | kurzzeitiger Besserungseffekt (Kräftigung, Frischegefühl) ([1]; time to onset, at first application possibly only after one to two days) | Ergebnisse [2] | Wirkung (comparison between the substances) ([1]; patients) | Equally effective amount (Wirkung entsprach) ([3]; amounts of the two substances with about the same effect) | Positivwirkung und Negativwirkung ([3]; comparison among peptides of the seven-residue chain) | Tolerability together with Cortison ([4]; in vivo) | Krankheitsbild (course) ([4]; subkutan, 2 - 15 Monate) | Reports of individual patients ([4]; subkutan, 2 - 15 Monate) | Share of patients with Gefühl der Frische, höheren Lebensmut und größerer Leistungsfähigkeit ([4]; subkutan, 2 - 15 Monate) | Spastik ([4]; subkutan, 2 - 15 Monate) | Absetzen von Cortison ([4]; withdrawal of Cortison under the tetrapeptide) | Lagerfähigkeit ([5]; als Reinsubstanz tiefgekühlt) | Loss of Wirksamkeit ([5]; in destilliertem Wasser gelöst, bei Kühlschranktemperatur aufbewahrt) | Halbwertzeit ([5]; pure tetrapeptide, storage) | Loss of effect im Körper [6] | Fähigkeit des Patienten in bezug auf die Zusammensetzung von bewegten Bildern [7, 8] | Wahrnehmung von Lichtreizen [7, 8] | Sehfähigkeit des menschlichen Auges ([7]; in vivo)
β -Melanotropin [ß -MSH] | innerhalb der ersten Stunde | – | – | – | – | – | – | – | – | – | – | – | – | – | – | – | – | –
N=C(N)NCCC[C@H](NC(=O)[C@H](Cc1ccccc1)NC(=O)[C@@H](N)Cc1cnc[nH]1)C(=O)N[C@@H](Cc1c[nH]c2ccccc12)C(=O)O [Tetrapeptid His-Phe-Arg-Trp, His-Phe-Arg-Trp] | – | besten Ergebnisse | im wesentlichen die gleiche Wirkung wie α -MSH und β-MSH | ~0,1 mg | stärksten Positivwirkung und der schwächsten Negativwirkung | gut nebeneinander vertragen | keine Verschlechterungen des Krankheitsbildes auf, sondern einige nachweisbare Verbesserungen | Normalisierung des (bisher zu niedrigen) Blutdrucks, bessere Durchblutung und Beweglichkeit der Extremitäten, Wiederherstellung des Tag-Nacht-Rhythmus (keine Schlafstörungen mehr), bessere Sehfähigkeit, Normalisierung des Zyklus, Minderung von Gleichgewichtsstörungen | Zwei Drittel | starkes Nachlasen der Spastik | wesentlich erleichtert und ohne Rückschläge oder Komplikationen beschleunigt | lagerfähig | etwa die Hälfte | ca. 1 Woche | innerhalb kurzer Zeit | wesentlich verbessert | stabilisiert | Verbesserung der Sehfähigkeit
